According to US20210322520A1, “METHODS OF MODULATING CORTICOSTEROID RESPONSE” (priority 2019, published 2021):
Read-outs that look alike come from different tables or passages of the source.

How the values were obtained:
[1] = Safety analyses (adverse events), phase 1 study; type: in vivo, human
Procedure: All subjects who received at least one dose of the study drug were in the safety population. Safety was assessed via adverse events (AEs), treatment-emergent AEs (TEAEs; events that occurred after the first dose of study drug and through study completion), serious TEAEs (TESAEs), physical examinations, vital signs, 12-lead electrocardiograms (ECGs), and clinical laboratory test findings collected throughout the study.

[2] = Cortisol-equivalent (steroidogenic) exposure of methylprednisolone; type: in vivo, human; settings: for plasma free cortisol-equivalent AUEC24SG / plasma total cortisol-equivalent AUEC24SG: 32 mg oral daily, mean; for EmaxSG / AUEC24SG[BA]: mean (SD); for TmaxSG: median (min, max); for AUEC24SG[BA]: baseline-corrected
Procedure: Whole blood samples were drawn from each subject at predefined time points over 24 hours after oral methylprednisolone administration on study Day 1 and Day 4 for determination of plasma total and free methylprednisolone concentrations. All subjects who were in both the PK and PD populations were included in the cortisol-equivalent exposure population.
Because oral methylprednisolone is known to suppress endogenous cortisol production, PD parameters for serum total and plasma free cortisol after administration of methylprednisolone were not calculated. Instead, the cortisol-equivalent (steroidogenic) concentration (CSG) of methylprednisolone was estimated. […] Therefore, a conversion factor of 5 was applied to the methylprednisolone concentration (ConcMPD). The following equation was used to estimate the steroidogenic concentration of methylprednisolone (CSG):
CSG=(5×ConcMPo)+ConcCortisol
CSG was used to estimate the following PD parameters for the steroidogenic concentration of plasma total and free methylprednisolone: maximum observed effect for the steroidogenic concentration (CSG) concentration-time profile (EmaxSG), time of EmaxSG (TmaxSG), and area under the effect curve for the CSG concentration-time profile from time 0 to 24 hours (AUEC24SG). Baseline-corrected AUEC24SG (AUEC24SG[BA]) was calculated by subtracting the baseline (Day-1) cortisol concentrations from the time-matched Day 1 steroidogenic concentration.

[3] = Phase 1 plasma pharmacokinetics in healthy subjects; type: in vivo, human; settings: for Cmax / half-life / AUC(0-t): plasma; for RAUC0-24 (accumulation ratio): AUC0-24 Day 4 / Day 1; for time of mean peak plasma concentration: after oral dosing
Procedure: Baseline demographics were collected during the screening period between study Day −28 and Day −3. Subjects remained at the clinic from 2 days before the first dose of study drug (Day-2) until study Day 8.
Serum samples for total cortisol and plasma samples for free cortisol, total methylprednisolone, free methylprednisolone, and ACTH1-24 were analyzed by Syneos Health (Quebec City, Quebec, Canada); plasma samples for N25D porcine ACTH1-39 were analyzed by QPS Netherlands BV (Groningen, Netherlands). Concentrations for all analytes were determined using liquid chromatography-tandem mass spectrometry methods that were validated according to the US FDA Bioanalytical Method Validation Guidance (May 2018). […]
The plasma total and free methylprednisolone were determined using a validated LC-MS/MS method developed by Syneos Health (Quebec City, Quebec, Canada). The LC-MS/MS methods for plasma total and free methylprednisolone were conducted using an Atmospheric Pressure Ionization (API) 5000 mass spectrometer (AB Sciex, Toronto, Canada) with positive electrospray ionization and multiple reaction monitoring (precursor/product ion m/z: 375/161 for methylprednisolone; 381/363 for methylprednisolone-d6, which was included as internal standard). Quantitative analysis was accomplished on an ACE Excel 2 C18-PFP (50×3.0 mm, 2 μm) column. The mobile phases were Milli-Q type water/methanol with ammonium formate and formic acid (in different proportions). The LC was run on isocratic mode followed by a column flush. The calibration range for plasma total methylprednisolone concentration was 0.500 to 500 ng/mL with LLOQ of 0.500 ng/mL. The inter- and intra-run-precision (relative SD) were ≤7%, and 8%, while the intra-run accuracy was 100% to 112%. The calibration range for plasma free cortisol concentration was 200 to […]. The inter- and intra-run-precision (relative SD) were ≤18.5% and 3%, respectively, while the intra-run accuracy was 94% to 101%.
All subjects whose PK profile contained at least 4 consecutive quantifiable concentrations were included in the PK population.
All subjects whose PK profile contained at least 4 consecutive quantifiable plasma concentrations of N25D porcine ACTH1-39, ACTH1-24, or total and free methylprednisolone were in the PK population.
PK parameters were estimated using actual blood collection times by noncompartmental methods using Phoenix® WinNonlin® 8.1. (Certara USA, Inc.). AUC0-24, AUC0-last, and AUC0-inf were calculated using the linear log trapezoidal rule. Kei was calculated using linear regression on the terminal slope of the ln-concentration versus time curve. At least 3 time points (excluding Cmax) and r^2≥0.90 were required to calculate and retain Kel and its associated parameters (t1/2 and AUC0-inf).

[4] = system: corticosterone levels in rats; assay: Corticosterone levels in rats after RCI or ACTH; type: in vivo, rat
Procedure: Studies were conducted to discover the differences between repository corticotropin injection (RCI) (i.e. Acthar® gel) and synthetic adrenal corticotropin compositions (referred to as ACTH herein) on corticosterone levels in rats.
RCI (10, 40, or 400 IU/kg) or ACTH (0.6, 1.2, or 2.4 mg/kg) was administered to Sprague Dawely rats, plasma samples collected and analyzed for corticosterone.
RCI and ACTH peak corticosterone and area under the curve (AUC) were evaluated.

[5] = free cortisol (steroidogenic concentration), Day 1
[6] = free cortisol (steroidogenic concentration), Day 4
[7] = total cortisol (steroidogenic concentration), Day 1
[8] = total cortisol (steroidogenic concentration), Day 4
[9] = human, oral, 32 mg, plasma free methylprednisolone, Day 1, mean (SD)
[10] = human, oral, 32 mg, plasma free methylprednisolone, Day 4, mean (SD)

C[C@H]1C[C@@H]2[C@H]([C@@H](O)C[C@@]3(C)[C@H]2CC[C@]3(O)C(=O)CO)[C@@]2(C)C=CC(=O)C=C12 [Methylprednisolone, methylprednisolone]
subjects experiencing TESAEs (in words) ([1]; TESAE of pulmonary embolism in the synthetic ACTH1-24 depot group): no subjects | AEs ([1]; n = 16 per group): 17 No. | Any TESAE ([1]; n = 16 per group): 0 No. (%) | Subjects with any TEAE ([1]; n = 16 per group): 10 (62.5) No. (%) | TEAE: Contusion ([1]; n = 16 per group): 1 (6.3) No. (%) | TEAE: Dysuria ([1]; n = 16 per group): 0 No. (%) | TEAE: Headache ([1]; n = 16 per group): 2 (12.6) No. (%) | TEAE: Heart palpitations ([1]; n = 16 per group): 2 (12.5) No. (%) | TEAE: Injection site reaction ([1]; n = 16 per group): 0 No. (%) | TEAE: Insomnia ([1]; n = 16 per group): 0 No. (%) | TEAE: Somnolence ([1]; n = 16 per group): 0 No. (%) | TESAE: Pulmonary embolism ([1]; n = 16 per group): 0 No. (%) | plasma free cortisol-equivalent AUEC24SG ([2]; Day 1): 572.0 ng·h/mL | plasma total cortisol-equivalent AUEC24SG ([2]; Day 1): 6480.0 ng·h/mL | plasma free cortisol-equivalent AUEC24SG ([2]; Day 4): 492.0 ng·h/mL | plasma total cortisol-equivalent AUEC24SG ([2]; Day 4): 5440.0 ng·h/mL | EmaxSG [2, 5]: 124.0 (37.2) ng/mL | TmaxSG [2, 5]: 2.0 (1.0, 4.0) h | EmaxSG [2, 6]: 109.0 (26.7) ng/mL | TmaxSG [2, 6]: 2.0 (1.0, 4.0) h | AUEC24SG[BA] ([2]; free cortisol, Day 1): 553.0 (187.0) h*ng/mL | AUEC24SG[BA] ([2]; free cortisol, Day 4): 475.0 (140.0) h*ng/mL | EmaxSG [2, 7]: 1040.0 (251.0) ng/mL | TmaxSG [2, 7]: 2.0 (2.0, 4.0) h | EmaxSG [2, 8]: 959.0 (188.0) ng/mL | TmaxSG [2, 8]: 2.0 (1.0, 4.0) h | AUEC24SG[BA] ([2]; total cortisol, Day 1): 4860.0 (1680.0) h*ng/mL | AUEC24SG[BA] ([2]; total cortisol, Day 4): 4010.0 (1260.0) h*ng/mL | mean exposure of plasma free methylprednisolone as share of plasma total methylprednisolone ([3]; both days (Day 1 and Day 4)): about 8% | AUC(0-inf) [3, 9]: 106 ng·h/mL | Tmax ([3]; human, oral, 32 mg, plasma total methylprednisolone, Day 1, median (min, max)): 2 h | Cmax [3, 9]: 24.6 ng/mL | half-life [3, 9]: 114 min | AUC(0-t) ([3]; human, oral, 32 mg, plasma free methylprednisolone, Day 1, mean (SD), read-out: AUC0-last): 104 ng·h/mL | AUC(0-t) ([3]; human, oral, 32 mg, plasma free methylprednisolone, Day 1, n = 1, read-out: AUC0-24): 176 ng·h/mL | Cmax [3, 10]: 21.9 ng/mL | half-life [3, 10]: 120 min | AUC(0-t) ([3]; human, oral, 32 mg, plasma free methylprednisolone, Day 4, mean (SD), read-out: AUC0-last): 89.5 ng·h/mL | AUC(0-t) ([3]; human, oral, 32 mg, plasma free methylprednisolone, Day 4, n = 1, read-out: AUC0-24): 145 ng·h/mL | half-life ([3]; human, oral, 32 mg, plasma total methylprednisolone, Day 1, mean (SD)): 132 min | half-life ([3]; human, oral, 32 mg, plasma total methylprednisolone, Day 4, mean (SD)): 144 min | AUC(0-t) ([3]; human, oral, 32 mg, plasma total methylprednisolone, Day 4, mean (SD), read-out: AUC0-24): 1110 ng·h/mL | AUC(0-t) ([3]; human, oral, 32 mg, plasma total methylprednisolone, Day 4, mean (SD), read-out: AUC0-last): 919 ng·h/mL | Cmax ([3]; human, po, 32 mg, plasma total methylprednisolone, 32 mg oral daily, Day 1, mean (SD)): 198 ng/mL | Cmax ([3]; human, po, 32 mg, plasma total methylprednisolone, 32 mg oral daily, Day 4, mean (SD)): 188 ng/mL | AUC(0-t) ([3]; human, po, 32 mg, plasma total methylprednisolone, Day 1, mean (SD), read-out: AUC0-24): 1330 ng·h/mL | AUC(0-t) ([3]; human, po, 32 mg, plasma total methylprednisolone, Day 1, mean (SD), read-out: AUC0-last): 1020 ng·h/mL | AUC(0-inf) ([3]; human, po, 32 mg, plasma total methylprednisolone, Day 1, mean (SD)): 1030 ng·h/mL | RAUC0-24 (accumulation ratio) ([3]; plasma free methylprednisolone, n = 1): 0.8 (NA) | RAUC0-24 (accumulation ratio) ([3]; plasma free methylprednisolone, n = 1, listed as methylprednisolone): 0.8 | time of mean peak plasma concentration ([3]; plasma free methylprednisolone): 2 h | RAUC0-24 (accumulation ratio) ([3]; plasma total methylprednisolone, mean (SD)): 0.9 (0.1) | RAUC0-24 (accumulation ratio) ([3]; plasma total methylprednisolone, mean (SD), listed as methylprednisolone): 0.9 | time of mean peak plasma concentration ([3]; plasma total methylprednisolone): around 2 hours

ACTH
reduction of corticosterone AUC between ACTH doses ([4]; ACTH 0.6, 1.2, 2.4 mg/kg): no significant reduction | dose dependence of corticosterone peak ([4]; Sprague Dawely rats, plasma): not dose dependent | time of peak corticosterone ([4]; Sprague Dawely rats, plasma, RCI 10, 40, 400 IU/kg, ACTH 0.6, 1.2, 2.4 mg/kg): 8 to 24 h
